Measurements as given in patent US20250270645A1, “ALGORITHM AND AN IN VITRO METHOD BASED ON RNA EDITING TO SELECT PARTICULAR EFFECT INDUCED BY ACTIVE COMPOUNDS” (ALCEDIAG, priority 2016, published 2025).
“Also recorded” adds a separate entry of the source.

Key:
[1] = annotation of the molecule (low/no risk versus high/at risk); cited from earlier work
[2] = system: ADAR1a mRNA expression; assay: Relative ADAR1a mRNA expression by quantitative PCR in treated SH-SY5Y cells; type: cell-based, human; conditions: 48 hours
Description: After cDNA synthesis samples were stored at 4° C. prior analysis of ADAR1a mRNA expression by qPCR on a LC480 system (Roche). qPCR data were quantified using the standard curve method. mRNA expression of ADAR1a is known to be induced by Interferon alpha treatment (IFNα). […] In this way, all samples of the same batch could be analysed in a single qPCR run. […] This response could be seen in all biological replicates (n=5). […] The coefficient of variation of 9.31% clearly illustrates the reproducibility of the biological phenomenon.

[3] = system: HTR2C RNA editing; assay: Time course of HTR2C RNA editing in SH-SY5Y cells with risk score by the most preferred algorithm (prob(Algorithm)); type: cell-based, human; conditions: for prediction / prob(Algorithm) risk score: SH-SY5Y, HTR2C; for time course of HTR2C RNA editing profile: SH-SY5Y cells, 12-48 h; for risk score over time points: most preferred algorithm, each time point
[4] = system: HTR2C RNA editing; assay: Dose-dependent alterations of HTR2C RNA editing profile in SH-SY5Y cells; type: cell-based, human; conditions: compared to vehicle-treated cells
Description: Prior to the experiment, the human neuroblastoma cell line (SH-SY5Y) was treated with an increasing dose of interferon and RNA editing of 5HT2cR was measured using NGS based approach.
The RNA editing profiles represent the respective relative proportion of HTR2C RNA editing as compared to vehicle-treated SH-SY5Y cells.

C[C@H](NC(=O)C(C)(C)Oc1ccc(C(F)(F)F)cn1)[C@@H](Cc1ccc(Cl)cc1)c1cccc(C#N)c1 [Taranabant]
risk class to induce psychiatric adverse side effect in a patient [1]: at risk

COC(=O)[C@H]1[C@H]2C[C@@H]3c4[nH]c5cc(OC)ccc5c4CCN3C[C@H]2C[C@@H](OC(=O)c2cc(OC)c(OC)c(OC)c2)[C@@H]1OC [molecule 165]
effect on ADAR1a mRNA expression [2]: induced ADAR1a mRNA expression; also recorded: strong increase of ADAR1a mRNA expression levels

COC(=O)[C@H]1[C@H]2C[C@@H]3c4[nH]c5cc(OC)ccc5c4CCN3C[C@H]2C[C@@H](OC(=O)c2cc(OC)c(OC)c(OC)c2)[C@@H]1OC [Reserpine]
effect on ADAR1a mRNA expression [2]: consistently increase ADAR1a mRNA levels | prediction ([3]; 12 h treatment): Pos | prob(Algorithm) risk score ([3]; 12 h treatment): 0.878 | prediction ([3]; 24 h treatment): Pos | prob(Algorithm) risk score ([3]; 24 h treatment): 0.986 | prediction ([3]; 48 h treatment): Pos | prob(Algorithm) risk score ([3]; 48 h treatment): 0.976 | time course of HTR2C RNA editing profile [3]: time-dependent alterations of the RNA editing profile | risk score over time points [3]: risk scores were high at all time points | risk class to induce psychiatric adverse side effect in a patient [1]: high risk

CCN(CC)CC(=O)Nc1c(C)cccc1C [Lidocaine]
risk class to induce psychiatric adverse side effect in a patient [1]: low or no risk

CC1=C(/C=C/C(C)=C/C=C/C(C)=C\C(=O)O)C(C)(C)CCC1 [Isotretinoin]
risk class to induce psychiatric adverse side effect in a patient [1]: at risk

CNCCC(Oc1ccc(C(F)(F)F)cc1)c1ccccc1 (centres unmarked) [Fluoxetine]
risk class to induce psychiatric adverse side effect in a patient [1]: high risk

NC(=O)c1ncn([C@@H]2O[C@H](CO)[C@@H](O)[C@H]2O)n1 [Ribavirin]
risk class to induce psychiatric adverse side effect in a patient [1]: low risk

CN[C@H]1CC[C@@H](c2ccc(Cl)c(Cl)c2)c2ccccc21 [Sertraline]
dose dependence of 5-HT2cR/HTR2C RNA editing profile [4]: Dose-dependent alterations of RNA editing profiles | risk class to induce psychiatric adverse side effect in a patient [1]: at risk

O=C1CCc2ccc(OCCCCN3CCN(c4cccc(Cl)c4Cl)CC3)cc2N1 [Aripiprazole]
prob(Algorithm) risk score ([3]; 12 h treatment): 0.528 | prediction ([3]; 24 h treatment): Pos | prob(Algorithm) risk score ([3]; 24 h treatment): 0.632 | prediction ([3]; 48 h treatment): Pos | prob(Algorithm) risk score ([3]; 48 h treatment): 0.760 | time course of HTR2C RNA editing profile [3]: time-dependent alterations of the RNA editing profile | risk score over time points [3]: identified positively at risk starting from 24 hours and beyond | risk class to induce psychiatric adverse side effect in a patient [1]: at risk

[Li] [Lithium]
risk class to induce psychiatric adverse side effect in a patient [1]: low risk

CNC1(c2ccccc2Cl)CCCCC1=O (centres unmarked) [Ketamine]
dose dependence of 5-HT2cR/HTR2C RNA editing profile [4]: Dose-dependent alterations of RNA editing profiles | risk class to induce psychiatric adverse side effect in a patient [1]: low risk
